The values below come from patent publication US8969516B2, “Method of hydrolysis of peptide bond” (priority 2006, dated 2015).

The series can be described thus: MALDI-TOF screening of Ni^2+ dependent hydrolysis in a combinatorial peptide library. The class given is physicochemical. The settings on record: Ni^2+ 2 mM, pH 8.2, 10 mM Tris, score=24/tm. An outline of the steps: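 Ni2+ 2 mM, peptide pool 1 mM (total), 10 mM Tris pH 8.2; 37 °C and 45 °C in parallel; MS aliquots at 2/4/6/8 h; products detected visually. X: all proteinogenic residues except Asp, Glu, Cys; Z: all except Cys.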

Where [1] appears, read: CH3CO-Gly-Ala-Ser-X-His-Z-Lys-Phe-Leu-NH2 library, 37° C.
[2] abbreviates: CH3CO-Gly-Ala-Ser-X-His-Z-Lys-Phe-Leu-NH2 library, 45° C.
Where [3] appears, read: CH3CO-Gly-Ala-Thr-X-His-Z-Lys-Phe-Leu-NH2 library, 45° C.
The mark [4] stands for this setting: CH3CO-Gly-Ala-Thr-X-His-Z-Lys-Phe-Leu-NH2 library, 37° C.

Consider Ac-GASWHIKFL-NH2 [SWHI], for which the “hydrolysis score from MALDI-TOF screening” value (from here on “hydrolysis score”) is recorded as 6 (a score of 6 for detection at 4 hours) under setting [1] and 12 (a score of 12, if it was seen to be partially hydrolysed at 2 hours) under setting [2].

For the substance Ac-GASAHKKFL-NH2 [SAHK], the “hydrolysis score” value under setting [1] is 3 (a score of 3 for detection at 8 hours) and the “hydrolysis score” value under setting [2] is 6 (a score of 6 for detection at 4 hours).

Consider Ac-GATPHLKFL-NH2 [TPHL], for which the “hydrolysis score” value under setting [3] was 0 (a score of 0 if no trace of the product of hydrolysis was seen after 8 hours of incubation).

For Ac-GASKHTKFL-NH2 [SKHT], the “hydrolysis score” value under setting [1] is on record as 0 (a score of 0 if no trace of the product of hydrolysis was seen after 8 hours of incubation) and the “hydrolysis score” value under setting [2] is given as 0 (a score of 0 if no trace of the product of hydrolysis was seen after 8 hours of incubation).

Regarding Ac-GATLHPKFL-NH2 [TLHP], the “hydrolysis score” value runs as follows: under setting [4], 0 (a score of 0 if no trace of the product of hydrolysis was seen after 8 hours of incubation); under setting [3], 0 (a score of 0 if no trace of the product of hydrolysis was seen after 8 hours of incubation).

With Ac-GASIHIKFL-NH2 [SIHI], the “hydrolysis score” value under setting [1] is recorded as 3 (a score of 3 for detection at 8 hours) and the “hydrolysis score” value under setting [2] is 3 (a score of 3 for detection at 8 hours).

In the case of Ac-GATMHDKFL-NH2 [TMHD], the “hydrolysis score” value is recorded as 0 (a score of 0 if no trace of the product of hydrolysis was seen after 8 hours of incubation) under setting [4] and 0 (a score of 0 if no trace of the product of hydrolysis was seen after 8 hours of incubation) under setting [3].

For Ac-GATRHAKFL-NH2 [TRHA], the “hydrolysis score” value reads like this: under setting [4], 0 (a score of 0 if no trace of the product of hydrolysis was seen after 8 hours of incubation); under setting [3], 3 (a score of 3 for detection at 8 hours).

Take Ac-GASPHNKFL-NH2 [SPHN]: the “hydrolysis score” value under setting [1] was 0 (a score of 0 if no trace of the product of hydrolysis was seen after 8 hours of incubation) and the “hydrolysis score” value under setting [2] is on record as 0 (a score of 0 if no trace of the product of hydrolysis was seen after 8 hours of incubation).

Regarding Ac-GATIHNKFL-NH2 [TIHN], the “hydrolysis score” value is 0 (a score of 0 if no trace of the product of hydrolysis was seen after 8 hours of incubation) under setting [4] and 0 (a score of 0 if no trace of the product of hydrolysis was seen after 8 hours of incubation) under setting [3].

For the substance Ac-GATAHVKFL-NH2 [TAHV], the “hydrolysis score” value by setting is: under setting [4], 0 (a score of 0 if no trace of the product of hydrolysis was seen after 8 hours of incubation); under setting [3], 0 (a score of 0 if no trace of the product of hydrolysis was seen after 8 hours of incubation).

Regarding Ac-GASLHWKFL-NH2 [SLHW], the “hydrolysis score” value by setting is: under setting [1], 3 (a score of 3 for detection at 8 hours); under setting [2], 4 (a score of 4 for detection at 6 hours).

For the substance Ac-GATRHRKFL-NH2 [TRHR], the “hydrolysis score” value is, setting by setting: under setting [4], 4 (a score of 4 for detection at 6 hours); under setting [3], 6 (a score of 6 for detection at 4 hours).

For the substance Ac-GASVHWKFL-NH2 [SVHW], the “hydrolysis score” value is 4 (a score of 4 for detection at 6 hours) under setting [1] and 4 (a score of 4 for detection at 6 hours) under setting [2].

As to Ac-GASWHSKFL-NH2 [SWHS], the “hydrolysis score” value is, setting by setting: under setting [1], 0 (a score of 0 if no trace of the product of hydrolysis was seen after 8 hours of incubation); under setting [2], 0 (a score of 0 if no trace of the product of hydrolysis was seen after 8 hours of incubation).

Regarding Ac-GASIHRKFL-NH2 [SIHR], the “hydrolysis score” value reads like this: under setting [1], 3 (a score of 3 for detection at 8 hours); under setting [2], 3 (a score of 3 for detection at 8 hours).

With Ac-GATVHRKFL-NH2 [TVHR], the “hydrolysis score” value reads like this: under setting [4], 0 (a score of 0 if no trace of the product of hydrolysis was seen after 8 hours of incubation); under setting [3], 3 (a score of 3 for detection at 8 hours).

For the substance Ac-GATTHSKFL-NH2 [TTHS], the “hydrolysis score” value runs as follows: under setting [4], 0 (a score of 0 if no trace of the product of hydrolysis was seen after 8 hours of incubation); under setting [3], 0 (a score of 0 if no trace of the product of hydrolysis was seen after 8 hours of incubation).

In the case of Ac-GASWHFKFL-NH2 [SWHF], the “hydrolysis score” value reads like this: under setting [1], 3 (a score of 3 for detection at 8 hours); under setting [2], 4 (a score of 4 for detection at 6 hours).

Consider Ac-GATVHDKFL-NH2 [TVHD], for which the “hydrolysis score” value under setting [4] is given as 0 (a score of 0 if no trace of the product of hydrolysis was seen after 8 hours of incubation) and the “hydrolysis score” value under setting [3] is 0 (a score of 0 if no trace of the product of hydrolysis was seen after 8 hours of incubation).

Regarding Ac-GATYHNKFL-NH2 [TYHN], the “hydrolysis score” value reads like this: under setting [4], 0 (a score of 0 if no trace of the product of hydrolysis was seen after 8 hours of incubation); under setting [3], 0 (a score of 0 if no trace of the product of hydrolysis was seen after 8 hours of incubation).

For the substance Ac-GASWHQKFL-NH2 [SWHQ], the “hydrolysis score” value under setting [1] is reported as 0 (a score of 0 if no trace of the product of hydrolysis was seen after 8 hours of incubation) and the “hydrolysis score” value under setting [2] was 0 (a score of 0 if no trace of the product of hydrolysis was seen after 8 hours of incubation).

On to Ac-GASPHGKFL-NH2 [SPHG], for which the “hydrolysis score” value under setting [1] was 0 (a score of 0 if no trace of the product of hydrolysis was seen after 8 hours of incubation) and the “hydrolysis score” value under setting [2] is reported as 0 (a score of 0 if no trace of the product of hydrolysis was seen after 8 hours of incubation).

With Ac-GATYHLKFL-NH2 [TYHL], the “hydrolysis score” value is recorded as 0 (a score of 0 if no trace of the product of hydrolysis was seen after 8 hours of incubation) under setting [4] and 0 (a score of 0 if no trace of the product of hydrolysis was seen after 8 hours of incubation) under setting [3].

On to Ac-GASWHYKFL-NH2 [SWHY], for which the “hydrolysis score” value by setting is: under setting [1], 0 (a score of 0 if no trace of the product of hydrolysis was seen after 8 hours of incubation); under setting [2], 6 (a score of 6 for detection at 4 hours).

Regarding Ac-GATNHNKFL-NH2 [TNHN], the “hydrolysis score” value is reported as 0 (a score of 0 if no trace of the product of hydrolysis was seen after 8 hours of incubation) under setting [4] and 0 (a score of 0 if no trace of the product of hydrolysis was seen after 8 hours of incubation) under setting [3].

For Ac-GASTHQKFL-NH2 [STHQ], the “hydrolysis score” value under setting [1] is on record as 0 (a score of 0 if no trace of the product of hydrolysis was seen after 8 hours of incubation) and the “hydrolysis score” value under setting [2] is 0 (a score of 0 if no trace of the product of hydrolysis was seen after 8 hours of incubation).

As to Ac-GATSHSKFL-NH2 [TSHS], the “hydrolysis score” value is, setting by setting: under setting [4], 0 (a score of 0 if no trace of the product of hydrolysis was seen after 8 hours of incubation); under setting [3], 0 (a score of 0 if no trace of the product of hydrolysis was seen after 8 hours of incubation).

For Ac-GASYHFKFL-NH2 [SYHF], the “hydrolysis score” value by setting is: under setting [1], 3 (a score of 3 for detection at 8 hours); under setting [2], 4 (a score of 4 for detection at 6 hours).

In the case of Ac-GASHHTKFL-NH2 [SHHT], the “hydrolysis score” value under setting [1] is on record as 0 (a score of 0 if no trace of the product of hydrolysis was seen after 8 hours of incubation) and the “hydrolysis score” value under setting [2] is listed as 0 (a score of 0 if no trace of the product of hydrolysis was seen after 8 hours of incubation).

On to Ac-GATSHAKFL-NH2 [TSHA], for which the “hydrolysis score” value under setting [4] is 0 (a score of 0 if no trace of the product of hydrolysis was seen after 8 hours of incubation) and the “hydrolysis score” value under setting [3] was 0 (a score of 0 if no trace of the product of hydrolysis was seen after 8 hours of incubation).

Regarding Ac-GASQHYKFL-NH2 [SQHY], the “hydrolysis score” value is given as 3 (a score of 3 for detection at 8 hours) under setting [1] and 4 (a score of 4 for detection at 6 hours) under setting [2].

For the substance Ac-GATQHFKFL-NH2 [TQHF], the “hydrolysis score” value by setting is: under setting [4], 0 (a score of 0 if no trace of the product of hydrolysis was seen after 8 hours of incubation); under setting [3], 0 (a score of 0 if no trace of the product of hydrolysis was seen after 8 hours of incubation).

With Ac-GASSHDKFL-NH2 [SSHD], the “hydrolysis score” value runs as follows: under setting [1], 0 (a score of 0 if no trace of the product of hydrolysis was seen after 8 hours of incubation); under setting [2], 3 (a score of 3 for detection at 8 hours).

As for Ac-GATAHIKFL-NH2 [TAHI], the “hydrolysis score” value was 0 (a score of 0 if no trace of the product of hydrolysis was seen after 8 hours of incubation) under setting [4] and 0 (a score of 0 if no trace of the product of hydrolysis was seen after 8 hours of incubation) under setting [3].

For Ac-GATAHTKFL-NH2 [TAHT], the “hydrolysis score” value is, setting by setting: under setting [4], 0 (a score of 0 if no trace of the product of hydrolysis was seen after 8 hours of incubation); under setting [3], 0 (a score of 0 if no trace of the product of hydrolysis was seen after 8 hours of incubation).
